Reference: publication PMC11538602, “Substrate binding and catalytic mechanism of UDP-α-D-galactofuranose: β-galactofuranoside β-(1→5)-galactofuranosyltransferase GfsA” (PNAS Nexus, 2024)

Tests used:
[1] = target: T1, GfsA (Aspergillus fumigatus, UniProt B0YDN6); assay: X-ray crystal structure, […] A; assay type: binding; details: crystal with UDP and Mn2+ soaked with 50 mM pNP-Galf, pNP group not resolved, only Galf modelled; acceptor site, D335 and D360
T1 construct: gene AFUB_096220; soluble catalytic domain, residues 43-537 without transmembrane segment; N-terminal 6xHis-tag (pET15b); E. coli Rosetta-gami B (DE3); 58 kDa; homodimer (120 kDa by gel filtration); GT31

[2] = target: GfsA (UDP-α-D-galactofuranose: β-galactofuranoside β-(1→5)-galactofuranosyltransferase) from Aspergillus fumigatus, soluble catalytic domain, residues 43–537 (Aspergillus fumigatus); assay: SEC; gel filtration chromatography of GfsA purified with Ni-agarose; broad single peak, estimated 120 kDa against 58 kDa for the monomer

Molecule: OC[C@@H](O)[C@@H]1O[C@@H](O)[C@H](O)[C@H]1O [Galf]
- X-ray crystal structure, 2.37 A [1]: Galf, was present within the depression and hydrogen bonded with D335 and D360

Molecule: GfsA (UDP-α-D-galactofuranose: β-galactofuranoside β-(1→5)-galactofuranosyltransferase) from Aspergillus fumigatus, soluble catalytic domain, residues 43–537 (enzyme)
- stoichiometry N [2]: 2
